Data as given in PubChem BioAssay AID330 (DTP/NCI, 2004).
Where “and” joins values, the source holds several entries; their conditions need not be identical. Equal entries are not always repeated. Inconclusive results and toxic doses are left out. Square brackets hold non-standard residues; d marks the D form. Peptide text beside a SMILES is read from it. * marks the point of attachment. Cbz = O=C(OCc1ccccc1)*; Nva = CCC[CH](N)C(=O)O

Test system: P388 leukemia ip, CD2F1 mice, survival T/C
Assay: NCI In Vivo Anticancer Drug Screen. Data for tumor model P388 Leukemia (intraperitoneal) in CD2F1 (CDF1) mice
Conditions: endpoint: median survival time, higher = longer survival
Summary of the method: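 Mice carrying the transplanted tumor received test compound or vehicle. Survival was recorded in each group, and the value is the treated-group measurement divided by that of the vehicle-treated control group.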

[1] = dose: 12.5 mg/kg/injection, schedule: Q01DX009 (ip), vehicle: saline
[2] = dose: 25.0 mg/kg/injection, schedule: Q01DX009 (ip), vehicle: saline
[3] = dose: 60.0 mg/kg/injection, schedule: Q01DX005 (ip), vehicle: saline
[4] = dose: 120.0 mg/kg/injection, schedule: Q01DX005 (ip), vehicle: saline
[5] = dose: 240.0 mg/kg/injection, schedule: Q01DX005 (ip), vehicle: saline
[6] = dose: 50.0 mg/kg/injection, schedule: Q01DX005 (ip), vehicle: Klucel (hydroxypropylcellulose) (HPC)
[7] = dose: 100.0 mg/kg/injection, schedule: Q01DX005 (ip), vehicle: Klucel (hydroxypropylcellulose) (HPC)
[8] = dose: 200.0 mg/kg/injection, schedule: Q01DX005 (ip), vehicle: Klucel (hydroxypropylcellulose) (HPC)
[9] = dose: 50.0 mg/kg/injection, schedule: Q01DX005 (ip), vehicle: saline with Tween-80
[10] = dose: 100.0 mg/kg/injection, schedule: Q01DX005 (ip), vehicle: saline with Tween-80
[11] = dose: 200.0 mg/kg/injection, schedule: Q01DX005 (ip), vehicle: saline with Tween-80
[12] = dose: 60.0 mg/kg/injection, schedule: Q01DX005 (ip), vehicle: saline with Tween-80
[13] = dose: 120.0 mg/kg/injection, schedule: Q01DX005 (ip), vehicle: saline with Tween-80
[14] = dose: 240.0 mg/kg/injection, schedule: Q01DX005 (ip), vehicle: saline with Tween-80
[15] = dose: 100.0 mg/kg/injection, schedule: Q04DX003 (ip), vehicle: saline with Tween-80
[16] = dose: 200.0 mg/kg/injection, schedule: Q04DX003 (ip), vehicle: saline with Tween-80
[17] = dose: 400.0 mg/kg/injection, schedule: Q04DX003 (ip), vehicle: saline with Tween-80
[18] = dose: 100.0 mg/kg/injection, schedule: Q04DX003 (ip), vehicle: Klucel (hydroxypropylcellulose) (HPC)
[19] = dose: 200.0 mg/kg/injection, schedule: Q04DX003 (ip), vehicle: Klucel (hydroxypropylcellulose) (HPC)
[20] = dose: 400.0 mg/kg/injection, schedule: Q04DX003 (ip), vehicle: Klucel (hydroxypropylcellulose) (HPC)
[21] = dose: 100.0 mg/kg/injection, schedule: Q04DX003 (ip), vehicle: saline
[22] = dose: 200.0 mg/kg/injection, schedule: Q04DX003 (ip), vehicle: saline
[23] = dose: 400.0 mg/kg/injection, schedule: Q04DX003 (ip), vehicle: saline
[24] = dose: 12.5 mg/kg/injection, schedule: Q01DX005 (ip), vehicle: saline with Tween-80
[25] = dose: 50.0 mg/kg/injection, schedule: Q01DX009 (ip), vehicle: saline with Tween-80
[26] = dose: 100.0 mg/kg/injection, schedule: Q01DX009 (ip), vehicle: saline with Tween-80
[27] = dose: 200.0 mg/kg/injection, schedule: Q01DX009 (ip), vehicle: saline with Tween-80

Compound: O=C1OC2C(COC(=O)c3cc(O)c(O)c(O)c3)OC(OC(=O)c3cc(O)c(O)c(O)c3)C(OC(=O)c3cc(O)c(O)c4c3C3C1=CC(=O)[C@](O)(O4)C3(O)O)C2OC(=O)c1cc(O)c(O)c(O)c1 (stereo partly drawn)
- T/C (dose: 6.25 mg/kg/injection, schedule: Q01DX009 (ip), vehicle: saline): 98 % of control
- T/C [1]: 99 % of control
- T/C [2]: 98 % of control

Compound: CC/C(=N/N(C)C)C(=O)O
- T/C [3]: 102 % of control
- T/C [4]: 105 % of control
- T/C [5]: 98 % of control

Compound: CCOC(=O)CC1=NN=C(N)SC1
- T/C [1]: 100 % of control
- T/C [2]: 101 % of control and 103 % of control
- T/C (dose: 50.0 mg/kg/injection, schedule: Q01DX009 (ip), vehicle: saline): 101 % of control and 106 % of control
- T/C (dose: 100.0 mg/kg/injection, schedule: Q01DX009 (ip), vehicle: saline): 93 % of control and 97 % of control
- T/C (dose: 200.0 mg/kg/injection, schedule: Q01DX009 (ip), vehicle: saline): 87 % of control

Compound: CCCC(NC(=O)OCc1ccccc1)C(=O)NC(CCSC)C(N)=O (stereo not drawn) (Cbz-[Nva]-Met-NH2; configuration not given here)
- T/C [6]: 106 % of control
- T/C [7]: 97 % of control
- T/C [8]: 88 % of control

Compound: COC(=O)/C=C1\C2OC(C1C(=O)OC)C1OC(C)(C)OC21 (stereo not drawn)
- T/C [9]: 99 % of control
- T/C [10]: 103 % of control
- T/C [11]: 96 % of control

Compound: Nc1nc(-c2cc(-c3cccc([N+](=O)[O-])c3Cl)nc(N)n2)cc(-c2cccc([N+](=O)[O-])c2Cl)n1
- T/C [12]: 105 % of control
- T/C [13]: 101 % of control
- T/C [14]: 100 % of control

Compound: Cc1ccc(S(=O)(=O)OC2C=CC(=O)C(OC(=O)c3ccccc3)C2OC(=O)c2ccccc2)cc1 (stereo not drawn)
- T/C (dose: 50.0 mg/kg/injection, schedule: Q01DX001 (ip), vehicle: saline with Tween-80): 102 % of control
- T/C (dose: 100.0 mg/kg/injection, schedule: Q01DX001 (ip), vehicle: saline with Tween-80): 100 % of control
- T/C (dose: 200.0 mg/kg/injection, schedule: Q01DX001 (ip), vehicle: saline with Tween-80): 91 % of control
- T/C (dose: 400.0 mg/kg/injection, schedule: Q01DX001 (ip), vehicle: saline with Tween-80): 98 % of control

Compound: O=c1[nH]c(=O)c2cc3cn[nH]c3cc2[nH]1
- T/C [9]: 92 % of control
- T/C [10]: 89 % of control
- T/C [11]: 101 % of control

Compound: NCCN.NCCN.[Cl-].[O]=[Re]=[O]
- T/C [3]: 100 % of control
- T/C [4]: 102 % of control
- T/C [5]: 100 % of control

Compound: OC(c1ccccc1)C(C(c1ccccc1)N1CCCc2ccccc21)N1CCOCC1 (stereo not drawn)
- T/C [6]: 99 % of control
- T/C [7]: 93 % of control
- T/C [8]: 90 % of control

Compound: Cc1ccc(NC(=O)COc2ccc(Cl)cc2Cl)c(C)c1
- T/C [15]: 104 % of control
- T/C [16]: 95 % of control
- T/C [17]: 90 % of control

Compound: Nc1cccc2c1C(=O)c1ccccc1C2=O
- T/C (dose: 50.0 mg/kg/injection, schedule: Q04DX003 (ip), vehicle: Klucel (hydroxypropylcellulose) (HPC)): 100 % of control
- T/C [18]: 101 % of control
- T/C [19]: 91 % of control
- T/C [20]: 92 % of control

Compound: O=C(O)CC(Cc1ncnc2c1ncn2C1OC(CO)C(O)C1O)C(=O)O (stereo not drawn)
- T/C [21]: 100 % of control
- T/C [22]: 99 % of control
- T/C [23]: 99 % of control

Compound: c1nc(NCCCN2CCOCC2)c2c3c(sc2n1)CCCC3
- T/C [9]: 109 % of control
- T/C [10]: 101 % of control
- T/C [11]: 100 % of control

Compound: O=C(O)c1ccc(N=NC2Sc3nc4ccccc4n3C2=O)cc1 (stereo not drawn)
- T/C (dose: 60.0 mg/kg/injection, schedule: Q01DX005 (ip), vehicle: Klucel (hydroxypropylcellulose) (HPC)): 92 % of control
- T/C (dose: 120.0 mg/kg/injection, schedule: Q01DX005 (ip), vehicle: Klucel (hydroxypropylcellulose) (HPC)): 91 % of control

Compound: N=C1C=CC(=C(c2ccc(N)cc2)c2ccc(N)cc2)C=C1
- T/C (dose: 6.25 mg/kg/injection, schedule: Q01DX005 (ip), vehicle: saline with Tween-80): 98 % of control
- T/C [24]: 98 % of control

Compound: Nc1ccccc1SC1CC(=O)N(c2ccccc2Cl)C1=O (stereo not drawn)
- T/C [25]: 90 % of control
- T/C [26]: 90 % of control and 95 % of control
- T/C [15]: 90 % of control
- T/C [27]: 95 % of control
- T/C [16]: 90 % of control
- T/C [17]: 95 % of control

Compound: O=C1OCCOCCOCCOCCOCCOC(=O)c2cccc1n2
- T/C [18]: 96 % of control
- T/C [19]: 103 % of control
- T/C [20]: 101 % of control

Compound: NC1(C(=O)O)CCc2ccccc2C1 (stereo not drawn)
- T/C [6]: 104 % of control
- T/C [7]: 102 % of control
- T/C [8]: 100 % of control

Compound: CC1=CC(O/C=C2\C(=O)OC3C=CCC23)OC1=O (stereo not drawn)
- T/C (dose: 100.0 mg/kg/injection, schedule: Q04DX002 (ip), vehicle: suspension in saline): 99 % of control
- T/C (dose: 200.0 mg/kg/injection, schedule: Q04DX002 (ip), vehicle: suspension in saline): 98 % of control
- T/C (dose: 400.0 mg/kg/injection, schedule: Q04DX002 (ip), vehicle: suspension in saline): 111 % of control

Compound: CCOC1CC(C)(O)C(C(=O)OC)c2cc3c(c(O)c21)C(=O)c1c(O)cc2c(c1C3=O)OC1OC2(C)C(O)C(N(C)C)C1O (stereo not drawn)
- T/C (dose: 3.16 mg/kg/injection, schedule: Q01DX009 (ip), vehicle: other): 151 % of control
- T/C (dose: 6.25 mg/kg/injection, schedule: Q01DX009 (ip), vehicle: other): 161 % of control
- T/C (dose: 12.5 mg/kg/injection, schedule: Q01DX009 (ip), vehicle: other): 171 % of control

Compound: CC12C(=O)C(c3ccccc3)(C(c3ccccc3)=C1c1ccccc1)C1OC(=O)OC12 (stereo not drawn)
- T/C [25]: 95 % of control
- T/C [26]: 91 % of control

Compound: Cc1c(-c2c(Cl)cccc2Cl)noc1CN(C)C
- T/C [12]: 101 % of control
- T/C [13]: 100 % of control
- T/C [14]: 92 % of control

Compound: O=C1CN2CCN3CC(=O)NC(=O)[C@H]3[C@@H]2C(=O)N1
- T/C [12]: 96 % of control
- T/C [13]: 96 % of control
- T/C [14]: 98 % of control

Compound: S=C(Nc1ccc(I)cc1)SCc1ccc(Cl)cc1
- T/C (dose: 50.0 mg/kg/injection, schedule: Q01DX009 (ip), vehicle: suspension in saline): 104 % of control
- T/C (dose: 100.0 mg/kg/injection, schedule: Q01DX009 (ip), vehicle: suspension in saline): 111 % of control
- T/C (dose: 200.0 mg/kg/injection, schedule: Q01DX009 (ip), vehicle: suspension in saline): 119 % of control

Compound: CN(C)Cc1nc2sc3c(c2c(=O)[nH]1)CCCC3
- T/C [25]: 106 % of control
- T/C [26]: 108 % of control
- T/C [27]: 103 % of control

Compound: [Mn].[NH-]C(CSSCC(N)C(=O)O)C(=O)O (stereo not drawn)
- T/C [21]: 97 % of control
- T/C [22]: 114 % of control
- T/C [23]: 106 % of control

Compound: Cc1ccc(S(=O)(=O)N(N)CCC#N)cc1
- T/C [6]: 94 % of control
- T/C [7]: 97 % of control
- T/C [8]: 96 % of control

Compound: COc1cc(NCC(C)(O)CN(CC(C)C)C(C)C)c2ncccc2c1 (stereo not drawn)
- T/C (dose: 12.5 mg/kg/injection, schedule: Q01DX005 (ip), vehicle: saline): 97 % of control
- T/C (dose: 25.0 mg/kg/injection, schedule: Q01DX005 (ip), vehicle: saline): 103 % of control
- T/C (dose: 50.0 mg/kg/injection, schedule: Q01DX005 (ip), vehicle: saline): 106 % of control and 109 % of control

Compound: CC(CN(C)C)C(/C=C/c1ccccc1)=N\NC(=O)c1ccccc1 (stereo not drawn)
- T/C [3]: 97 % of control
- T/C [4]: 96 % of control
- T/C [5]: 97 % of control

Compound: COC1OCCCO1
- T/C [3]: 103 % of control
- T/C [4]: 104 % of control
- T/C [5]: 107 % of control

Compound: NC(=O)N=Nc1cccc(Cl)c1
- T/C [9]: 98 % of control
- T/C [10]: 104 % of control
- T/C [11]: 104 % of control

Compound: NCC1CC2CCC1CC2 (stereo not drawn)
- T/C [24]: 99 % of control
- T/C (dose: 25.0 mg/kg/injection, schedule: Q01DX005 (ip), vehicle: saline with Tween-80): 100 % of control
- T/C [9]: 100 % of control and 102 % of control
